Measurements reported in paper PMC4660506 (Pharmacognosy Research, 2015).

Tests used:
[1] = target: xanthine oxidase (XO) (Bos taurus, UniProt P80457); assay: Xanthine oxidase inhibitory activity; assay type: biochemical
[2] = target: T1, alpha-amylase (Sus scrofa, UniProt P00690); assay: Alpha-amylase inhibitory activity; assay type: biochemical; settings: qualitative statement
T1 sequence (P00690 16-511): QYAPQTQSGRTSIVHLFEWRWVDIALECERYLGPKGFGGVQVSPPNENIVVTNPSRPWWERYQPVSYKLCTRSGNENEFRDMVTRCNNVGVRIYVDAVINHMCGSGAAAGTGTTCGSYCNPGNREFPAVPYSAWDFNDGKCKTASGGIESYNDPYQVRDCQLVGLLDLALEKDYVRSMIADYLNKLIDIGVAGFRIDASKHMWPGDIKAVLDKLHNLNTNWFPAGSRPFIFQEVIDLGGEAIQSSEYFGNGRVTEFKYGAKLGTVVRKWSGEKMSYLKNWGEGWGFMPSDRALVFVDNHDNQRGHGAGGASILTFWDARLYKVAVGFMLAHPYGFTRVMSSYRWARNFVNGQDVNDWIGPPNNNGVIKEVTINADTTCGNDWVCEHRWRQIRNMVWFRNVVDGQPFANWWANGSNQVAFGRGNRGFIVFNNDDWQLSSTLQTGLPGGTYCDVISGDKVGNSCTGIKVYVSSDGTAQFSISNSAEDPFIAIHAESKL

Sequence of xanthine oxidase (XO) (P80457 2-1332 limits assumed): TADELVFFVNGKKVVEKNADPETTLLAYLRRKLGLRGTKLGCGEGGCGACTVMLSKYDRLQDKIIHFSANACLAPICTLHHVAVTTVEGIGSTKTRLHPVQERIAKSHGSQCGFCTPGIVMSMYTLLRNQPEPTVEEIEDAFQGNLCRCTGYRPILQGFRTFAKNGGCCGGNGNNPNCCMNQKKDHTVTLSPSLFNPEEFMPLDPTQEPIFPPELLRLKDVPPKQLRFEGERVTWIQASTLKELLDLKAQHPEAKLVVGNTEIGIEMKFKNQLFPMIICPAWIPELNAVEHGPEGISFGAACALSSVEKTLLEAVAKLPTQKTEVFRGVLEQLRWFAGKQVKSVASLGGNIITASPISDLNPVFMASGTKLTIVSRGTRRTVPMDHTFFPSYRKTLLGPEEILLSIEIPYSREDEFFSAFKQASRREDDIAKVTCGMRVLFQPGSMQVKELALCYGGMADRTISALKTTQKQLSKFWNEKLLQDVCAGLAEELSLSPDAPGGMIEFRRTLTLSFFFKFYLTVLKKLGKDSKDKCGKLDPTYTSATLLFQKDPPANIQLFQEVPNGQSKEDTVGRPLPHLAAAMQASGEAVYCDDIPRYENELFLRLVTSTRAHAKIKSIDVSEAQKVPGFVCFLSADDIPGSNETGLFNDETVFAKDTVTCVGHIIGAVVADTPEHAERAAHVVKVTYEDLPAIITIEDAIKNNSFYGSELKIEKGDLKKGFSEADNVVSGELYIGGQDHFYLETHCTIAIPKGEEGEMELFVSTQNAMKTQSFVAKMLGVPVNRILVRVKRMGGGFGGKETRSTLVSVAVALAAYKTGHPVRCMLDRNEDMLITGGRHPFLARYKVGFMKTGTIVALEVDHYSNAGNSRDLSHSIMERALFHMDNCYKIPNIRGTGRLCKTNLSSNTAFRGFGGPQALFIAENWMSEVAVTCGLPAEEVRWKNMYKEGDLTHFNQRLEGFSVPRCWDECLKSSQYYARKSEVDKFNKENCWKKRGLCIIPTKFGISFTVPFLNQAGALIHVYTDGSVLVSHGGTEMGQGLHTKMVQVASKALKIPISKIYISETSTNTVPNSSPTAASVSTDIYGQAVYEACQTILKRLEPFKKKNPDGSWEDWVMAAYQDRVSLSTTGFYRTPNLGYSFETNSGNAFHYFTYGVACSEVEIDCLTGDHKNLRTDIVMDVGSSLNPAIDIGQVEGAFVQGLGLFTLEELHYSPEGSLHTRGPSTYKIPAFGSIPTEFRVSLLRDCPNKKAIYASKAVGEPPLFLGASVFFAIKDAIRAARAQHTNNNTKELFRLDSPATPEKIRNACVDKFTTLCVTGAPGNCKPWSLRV

| Compound | XO inhibitory activity (in words) ([1]; qualitative statement) | Alpha-amylase inhibitory activity (in words) [2] | other results |
| --- | --- | --- | --- |
| 2-hydroxyacetophenone [F2] | active | – | – |
| C=C(C)[C@@H]1CC[C@]2(C)CC[C@]3(C)[C@H](CC[C@@H]4[C@@]5(C)CC[C@H](O)C(C)(C)[C@@H]5CC[C@]43C)[C@@H]12 [F11, lupeol] | – | more active against alpha-amylase as compared to the parent fraction | – |
| CC[C@H](CC[C@@H](C)[C@H]1CC[C@H]2[C@@H]3CC=C4C[C@@H](O)CC[C@]4(C)[C@H]3CC[C@]12C)C(C)C [F7, β-sitosterol] | – | more active against alpha-amylase as compared to the parent fraction | – |
| O=c1c(O)c(-c2ccc(O)c(O)c2)oc2cc(O)cc(O)c12 [F10, quercetin] | – | – | XO inhibitory activity (in words) ([1]; qualitative statement in text, listed as Quercetin): highest inhibitory activity; XO inhibitory activity (in words) ([1]; qualitative statement in text, listed as quercetin): active |
| C[C@@H]1O[C@@H](OC[C@H]2O[C@@H](Oc3c(-c4ccc(O)c(O)c4)oc4cc(O)cc(O)c4c3=O)[C@H](O)[C@@H](O)[C@@H]2O)[C@H](O)[C@H](O)[C@H]1O [F9, rutin] | active | – | EC50 [1]: 17.5 µM |
